# From patent US20230348362A1, “LIPID COMPOUNDS AND LIPID NANOPARTICLE COMPOSITIONS” (Suzhou Abogen Biosciences Co., Ltd., priority 2021, published 2023)
# What was measured:
# Assay type in all cases: physicochemical
# [1] = Apparent pKa of LNP formulations, TNS fluorescence assay; conditions: LNP cationic lipid/DSPC/cholesterol/DMG-PEG 50/10/38.5/1.5 mol %
# Procedure, shortened: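 LNPs (cationic lipid/DSPC/cholesterol/DMG-PEG 50/10/38.5/1.5 mol %) diluted to 0.1 mg/mL total lipid in citrate/phosphate/borate/NaCl buffers spanning pH 3–9 with TNS. Fluorescence (ex 325, em 435 nm) read at room temperature; pKa taken as the pH at half-maximal intensity from sigmoidal fit.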
# [2] = Lipid nanoparticle size and polydispersity by dynamic light scattering; conditions: LNP of lipid/DSPC/cholesterol/PEG-lipid 50:10:38.5:1.5 encapsulating hEPO mRNA
# Procedure, shortened: (§1)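 LNPs made from ionizable lipid/DSPC/cholesterol/PEG-lipid (50:10:38.5:1.5) and mRNA in citrate pH 4 by microfluidic mixing, lipid:mRNA about 10:1–30:1 w/w, then dialysed into DPBS and filtered. Size and PDI measured by DLS in backscatter mode; encapsulation efficiency measured by RiboGreen assay.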
# [3] = Encapsulation efficiency of lipid nanoparticles, Quant-it Ribogreen RNA assay; conditions: LNP of lipid/DSPC/cholesterol/PEG-lipid 50:10:38.5:1.5 encapsulating hEPO mRNA
# Procedure, shortened: as §1
SMILES,Apparent Pka [1],polydispersity [2],size (nm) [2] [nm],Encapsulation Efficiency [3] [%]
CCCCCCCCCCCC(=O)OCCCCCN(CCN(CCO)CCCCCOC(=O)CC(CCCCCCCC)CCCCCCCC)C1CCCCCCC1 [Compound 95],6.271,0.103,55.48,92.04
CCCCCCCCC(CCCCCCCC)CNC(=O)CCCCCN(CCNc1c(NC)c(=O)c1=O)CCN(C)CCCCCC(=O)OCC(CCCCCCCC)CCCCCCCC [Compound 96],7.287,0.087,57.20,97.00
CCCCCCCCCCCC(=O)OCCCCCN(CCN(CCO)CCOCCOC(=O)CC(CCCCCCCC)CCCCCCCC)C1CCC1 [Compound 97],6.912,0.045,76.13,88.12
CCCCCCCCC(CCCCCCCC)COC(=O)CCCCCN(CCO)CCN(CCCCCC(=O)OCCCCCC)C1CCCCC1 [Compound 101],6.423,0.078,98.67,87.20
CCCCCCCCCOC(=O)CCCCCN(CCN(CCO)CCCCCC(=O)OCC(CCCCCCCC)CCCCCCCC)C1CCCCC1 [Compound 102],6.407,0.082,77.17,90.14
CCCCCCCCCCCCCCCCCCOC(=O)CCCCCN(CCN(CCO)CCCCCC(=O)OCC(CCCCCCCC)CCCCCCCC)C1CCCCC1 [Compound 105],6.328,0.051,69.11,93.35
CCCCCCCCCCCOC(=O)CCCCCN(CCN(CCO)CCCCCC(=O)OCC(CCCCCCCC)CCCCCCCC)C1CCCCCC1 [Compound 107],6.411,0.121,55.62,93.22
CCCCCCCC/C=C\CCCCCCCC(=O)OCCCCCN(CCN(CCO)CCCCCC(=O)OCC(CCCCCCCC)CCCCCCCC)C1CCCCC1 [Compound 109],6.348,0.032,78.27,92.54
CCCCCCCCC(CCCCCCCC)COC(=O)CCCCCN(CCN(CCO)CCOCCC(=O)OCC(CCCCCCCC)CCCCCCCC)C1CCC1 [Compound 110],6.293,0.042,84.07,93.11
CCCCCCCCC(CCCCCCCC)COC(=O)CCCCCN(CCN(CCO)CCOCCC(=O)OCC(CCCCCCCC)CCCCCCCC)C1CCCCC1 [Compound 111],6.108,0.069,76.24,92.05
CCCCCCCCC(CCCCCCCC)COC(=O)CCOCCN(CCO)CCN(CCOCCC(=O)OCC(CCCCCCCC)CCCCCCCC)C1CCC1 [Compound 112],6.343,0.059,77.33,93.15
CCCCCCCCC(CCCCCCCC)COC(=O)CCOCCN(CCO)CCN(CCOCCC(=O)OCC(CCCCCCCC)CCCCCCCC)C1CCCCC1 [Compound 113],6.364,0.012,89.42,92.93
CCCCCCCCCCCOC(=O)CCOCCN(CCN(CCO)CCOCCC(=O)OCC(CCCCCCCC)CCCCCCCC)C1CCC1 [Compound 116],6.826,0.102,77.45,87.45
CCCCCCCCC(CCCCCCCC)COC(=O)CCCCCN(CCO)CCN(CCCCCC(=O)OCC(CCCCCCCC)CCCCCCCC)CCC(C)C [Compound 118],6.044,0.121,57.96,94.10
CCCCCCCCC(CCCCCCCC)COC(=O)CCOCCN(CC=C(C)C)CCN(CCO)CCOCCC(=O)OCC(CCCCCCCC)CCCCCCCC [Compound 120],6.546,0.043,75.42,94.33
CCCCCCCCC(CCCCCCCC)CNC(=O)CCCCCN(CC=C(C)C)CCN(CCO)CCCCCC(=O)OCC(CCCCCCCC)CCCCCCCC [Compound 121],6.583,0.077,70.01,93.23
CCCCCCCCC(CCCCCCCC)CNC(=O)CCCCCN(CC=C(C)C)CCN(CCO)CCCCCC(=O)NCC(CCCCCCCC)CCCCCCCC [Compound 122],6.817,0.066,65.77,93.47

SMILES,Apparent Pka [1],polydispersity [2],size (nm) [2] [nm],Encapsulation Efficiency [3] [%]
CCCCCCCCC(CCCCCCCC)COC(=O)CCCCCN(CCO)CCN(CC=C(C)C)CCOCCC(=O)OCC(CCCCCCCC)CCCCCCCC [Compound 123],6.336,0.152,59.28,94.58
CCCCCCCCC(CCCCCCCC)COC(=O)CCCCCN(CCO)CCN(CCCCC)CCCCCC(=O)OCC(CCCCCCCC)CCCCCCCC [Compound 124],5.997,0.111,59.55,94.60
CCCCCCCCC(CCCCCCCC)COC(=O)CCCCCN(CC=C(C)C)CCN(CCCCCC(=O)OCC(CCCCCCCC)CCCCCCCC)C1CCC(O)CC1 (stereo not shown) [Compound 126],6.212,0.047,61.57,92.26
CCCCCCCCC(CCCCCCCC)COC(=O)CCCCCN(CCO)CCN(CCCCCOC(=O)N(CCCCCCCC)CCCCCCCC)C1CCCCC1 [Compound 127],6.226,0.090,69.05,91.77
CCCCCCCCCCCOC(=O)CCCCCN(CCN(CCO)CCCCCOC(=O)OCC(CCCCCCCC)CCCCCCCC)C1CCCCC1 [Compound 128],6.539,0.093,60.57,92.31
CCCCCCCCCCCCCCCCOC(=O)CCCCCN(CCN(CCO)CCCCCC(=O)OCC(CCCCCCCC)CCCCCCCC)C1CCCCCCC1 [Compound 131],6.255,0.121,56.62,92.18
CCCCCCCCC(CCCCCCCC)COC(=O)CCCCCN(CCO)CCN(CCCCCOC(=O)OCC(CCCCCCCC)CCCCCCCC)C1CCCCC1 [Compound 133],5.990,0.267,74.57,94.56
CCCCCCCCC(CCCCCC)CNC(=O)CCCCCN(CCO)CCN(CCCCC(COC(=O)CCCCCCC)COC(=O)CCCCCCC)C1CCC1 (stereo not shown) [Compound 136],6.831,0.040,84.74,88.64
CCCCCCCCC(CCCCCC)COC(=O)CCCCCN(CCO)CCN(CCCCC(COC(=O)CCCCCCC)COC(=O)CCCCCCC)C1CCCC1 (stereo not shown) [Compound 137],6.494,0.040,67.32,89.36
CCCCCCCC(=O)OCC(CCCCN(CCO)CCN(CCCCC(COC(=O)CCCCCCC)COC(=O)CCCCCCC)C1CCCCC1)COC(=O)CCCCCCC [Compound 141],6.475,0.128,63.69,88.11
CCCCCCCCC(CCCCCC)COC(=O)CCCCCN(CCO)CCN(CCCCC(COC(=O)CCCCCCC)COC(=O)CCCCCCC)C1CCCCCC1 (stereo not shown) [Compound 142],6.218,0.055,71.85,87.29
CCCCCCCCC(CCCCCC)CNC(=O)CCCCCN(CCO)CCN(CCCCC(COC(=O)CCCCCCC)COC(=O)CCCCCCC)C1CCCCCC1 (stereo not shown) [Compound 143],6.687,0.057,69.16,90.39
CCCCCCCCC(CCCCCC)COC(=O)CCCCCN(CCO)CCN(CCCCC(COC(=O)CCCCCCC)COC(=O)CCCCCCC)C1CCCCCCC1 (stereo not shown) [Compound 144],6.182,0.099,68.28,84.58
CCCCCCCCC(CCCCCC)CC(=O)OCCCCCN(CCO)CCN(CCCCCN(C)C(=O)CC(CCCCCC)CCCCCCCC)C1CCCCCC1 (stereo not shown) [Compound 147],6.62,0.058,85.76,88.17
CCCCCCCCC(CCCCCC)CNC(=O)CCCCCN(CC=C(C)C)CCN(CCO)CCCCC1COC(C(CCCCCC)CCCCCCCC)OC1 (stereo not shown) [Compound 150],6.586,0.076,76.37,91.34
CCCCCCCCC(CCCCCC)COC(=O)CCCCCN(CC=C(C)C)CCN(CCO)CCCCC1COC(C(CCCCCC)CCCCCCCC)OC1 (stereo not shown) [Compound 151],6.368,0.064,61.84,92.43
CCCCCCCC/C=C\CCCCCCCC(=O)OCCCCCN(CCO)CCN(CCCCCNC(=O)CC(CCCCCC)CCCCCCCC)C1CCCCCC1 (stereo not shown) [Compound 152],6.646,0.031,83.28,91.68
